Assay results published in US20250006331A1, “QUANTITATIVE SYSTEMS PHARMACOLOGY METHODS FOR IDENTIFYING THERAPEUTICS FOR DISEASE STATES” (UNIVERSITY OF PITTSBURGH-OF THE COMMONWEALTH SYSTEM OF …, priority 2021, published 2025).
“Also recorded” adds a separate entry of the source.

Legend:
LAMPS models [1] = assay: LAMPS cytotoxicity (lactate dehydrogenase secretion); conditions: for Lactate dehydrogenase curves: 10-day time course, vs vehicle control, 10 μM OCA, 30 μM PGZ, 10 μM TGZ
Description: LAMPS model assembly and maintenance. LAMPS studies were carried out as previously described (Vernetti, Senutovitch et al. 2016, Lee-Montiel, George et al. 2017, Miedel, Gavlock et al. 2019, Mohammed 2021) with modification to include the use of human primary liver sinusoidal endothelial cells (LSECs). A single chamber commercial microfluidic device (HAR-V single channel device, SCC-001, Nortis, Inc. Seattle, WA) was used for LAMPS studies. For all steps involving injection of media and/or cell suspensions into LAMPS devices, 100-150 μl per device was used to ensure complete filling of fluidic pathways, chamber and bubble traps. The percentages of hepatocytes, THP-1, LSEC, and LX-2 cells are consistent with the scaling used in our previously published models (Vernetti, Senutovitch et al. 2016, Lee-Montiel, George et al. 2017, Miedel, Gavlock et al. 2019, Mohammed 2021). For the studies described here, LAMPS models were set up and maintained for 10 days under flow.
Secretome measurements. Efflux media from LAMPS devices was collected on days 2,4,6,8, and 10 to measure albumin, blood urea nitrogen, and lactate dehydrogenase. […] The CytoTox 96 for lactate dehydrogenase (LDH) and the urea nitrogen test were purchased from Promega (Madison, WI) and Stanbio Laboratory (Boerne, TX), respectively. […] All efflux measurements were carried out according to the manufacturer's protocol and obtained as described previously (Vernetti, Senutovitch et al. 2016, Lee-Montiel, George et al. 2017, Li, George et al. 2018, Miedel, Gavlock et al. 2019).
LAMPS models were maintained for 10 days in MAFLD disease media containing either the indicated concentration of drug or DMSO vehicle control. We determined drug concentrations to test in LAMPS models guided by the CMap database and by cytotoxicity testing in primary hepatocytes (Table S8). […] We examined a panel of metrics to monitor disease-specific phenotypes including model functionality (albumin and blood urea nitrogen production) and cytotoxicity (lactate dehydrogenase secretion), hepatocellular steatosis (LipidTOX Lipid Stain from ThermoFisher Scientific labeling), stellate cell activation (α-smooth muscle actin staining), and the production of a panel of pro-inflammatory cytokines and fibrotic markers (Pro-collagen 1A1 and TIMP-1) (Mohammed et. al, 2021).

[2] = system: Pro-collagen 1A1 and TIMP-1; assay: LAMPS secretion of pro-fibrotic markers (ELISA); assay type: cell-based, human; conditions: for Effect on secreted pro-fibrotic markers / fibrosis: LAMPS NAFLD/MAFLD model, summary statement; for Decrease in secretion of the pro-fibrotic marker Pro-collagen 1a1: 30 μM PGZ vs vehicle, decrease not statistically significant; for Decrease in secretion of the pro-fibrotic marker Pro-Col 1a1: 10 μM TGZ vs vehicle, decrease is not significant
Text: (§1) LAMPS model assembly and maintenance. […] The experimental setup workflow is described in the Supplement.

[3] = system: TNF-α, IL-6, IL-8, IL-1α and MCP-1; assay: LAMPS production of pro-inflammatory cytokines; assay type: cell-based, human; conditions: for Inflammatory cytokine production: LAMPS
Text: as §1

[4] = system: LX-2 human stellate cells; assay: LAMPS stellate cell activation (α-smooth muscle actin staining); assay type: cell-based; conditions: for Effect on stellate cell activation: LAMPS NAFLD/MAFLD model, summary statement; for Stellate cell activation (α-SMA intensity): LAMPS, 10 μM OCA, 30 μM PGZ
Text: (§2) LAMPS cell sources and cell culture. A single lot of selected cryopreserved primary human hepatocytes (lot #Hu1960) with >90% viability and re-plating efficiency post-thaw were purchased from ThermoFisher. A single lot of selected cryopreserved primary human liver sinusoidal endothelial cells (LSEC; lot #: HL160019) were purchased from LifeNet Health (formerly Samsara Sciences; Virginia Beach, VA.). The human monoblast cell line, THP-1, used to generate Kupffer cells, was purchased from ATCC (Rockville, MD). LX-2 human stellate cells were acquired from Sigma Millipore (Billerica, MA). The LX-2 cell is an immortalized human hepatic stellate cell that constitutively expresses key receptors regulating hepatic fibrosis, and proliferates in response to PDGF, a prominent mitogen contributing to liver fibrosis (Bonner 2004, Xu, Hui et al. 2005).
as §1
Stellate cell activation. Staining for LX-2 cell expression of α-smooth muscle actin (α-SMA) was performed after completion of the experimental time course (Day 10) in LAMPS models as previously described (Vernetti, Senutovitch et al. 2016, Li, George et al. 2018) and are outlined in detail in the Supplemental Methods section.

LAMPS models [5] = assay: LAMPS hepatocellular steatosis (LipidTOX labeling); assay type: cell-based, human; conditions: for Effect on steatosis: LAMPS NAFLD/MAFLD model, summary statement; for Hepatocellular steatosis / lipid accumulation (LipidTOX intensity): NAFLD disease media, day 10, vs vehicle control, 10 μM TGZ, Vorinostat 1.7 or 5 μM, AS601245 1 or 3 μM, pioglitazone + vorinostat combination
Description: as §1
Steatosis measurements. Steatosis measurements were performed using HCS LipidTOX Deep Red Neutral Lipid Stain (ThermoFisher) after completion of the experimental time course (Day 10) in LAMPS models as previously described (Lee-Montiel, George et al. 2017) and are outlined in detail in the Supplemental Methods section.

LAMPS models [6] = assay: LAMPS model functionality (albumin and blood urea nitrogen secretion); assay type: cell-based, human; conditions: 10-day time course, vs vehicle control, 10 μM OCA, 30 μM PGZ; for Albumin curves / Blood urea nitrogen curves: NAFLD disease media, 10 μM TGZ, Vorinostat 1.7 or 5 μM, AS601245 1 or 3 μM, pioglitazone + vorinostat combination
Text: as §2
Primary human hepatocytes were thawed following the manufacturer's recommendations using Cryopreserved Hepatocyte Recovery Medium (CHRM; ThermoFisher) and were initially cultured in hepatocyte plating media (HPM) containing Williams E medium (11.5 mM glucose) supplemented with 5% fetal bovine serum, […] penicillin-streptomycin and 2 mM L-glutamine. For perfusion in LAMPS models, cells were maintained in normal fasting (NF), early metabolic syndrome (EMS), or late metabolic syndrome (LMS) media. The description of components of these media types is detailed in the Metabolic Syndrome Media section below. LSECs were thawed and expanded in endothelial cell basal medium-2 (EBM-2) supplemented with the endothelial growth medium-2 (EGM-2) supplement pack (Lonza; Alpharetta, GA; #CC-4176). THP-1 cells were cultured in suspension in RPMI-1640 medium (ThermoFisher) supplemented with 10% fetal bovine serum (FBS; ThermoFisher), 100 μg/mL penicillin streptomycin (ThermoFisher), and 2 mM L-glutamine (ThermoFisher). THP-1 cells were differentiated into mature macrophages by treatment with 200 ng/mL phorbol myristate acetate (Sigma Aldrich) for 48 h. Differentiated THP-1 monocytes release human tumor necrosis factor alpha (TNF-α) and interleukin-6 (IL-6) in response to LPS treatment, a condition reported to induce the immune mediated liver toxic response in in vitro models (Jang, Choi et al. 2006, Kostadinova, Boess et al. 2013). LX-2 cells were cultured in Dulbecco's Modified Eagle Medium (DMEM; ThermoFisher) supplemented with 2% FBS and 100 μg/mL penicillin streptomycin.
Metabolic syndrome media. We developed medias that were designed to create disease progression from Normal Fasting (NF) to early metabolic syndrome (EMS or NAFLD) and late metabolic syndrome (LMS or T2D) over a two-week period in the LAMPS platform (Mohammed 2021). For the studies described here, we used both NF and EMS media formulations. […] We then adjusted these components to reflect the pathophysiological conditions as described below (Alford, Bloodm et al. 1977, Kuhl 1977, Kim, Kim et al. 2000, Chitturi, Abeygunasekera et al. 2002, de Almeida, Cortez-Pinto et al. 2002, Valencia, Marin et al. 2002, Edgerton, Ramnanan et al. 2009, Winnick, An et al. 2009).
Early Metabolic Syndrome (EMS) Media: Early metabolic syndrome (EMS) medium was derived from the NF media formulation with the following modifications: 11.5 mM glucose, 10 nM insulin, […] glucagon, 200 μM sodium oleate and 100 μM palmitic acid (Sigma).
as §1

[7] = observational trial of adult males [Vega, G. L., et al. 2008]; cited from earlier work
[8] = LAMPS, EMS media, 10 days, 10 μM OCA
[9] = LAMPS, NAFLD disease media, 10 days, 10 μM OCA, 30 μM PGZ
[10] = EMS media, day 10, vs vehicle, vorinostat 1.7 or 5 μM, pioglitazone 30 μM + vorinostat 1.7 or 5 μM
[11] = NAFLD disease media, day 10, vs vehicle control, Vorinostat 1.7 or 5 μM, AS601245 1 or 3 μM, pioglitazone + vorinostat combination
[12] = NAFLD disease media, day 10, vs vehicle control, 10 μM TGZ, Vorinostat 1.7 or 5 μM, pioglitazone + vorinostat combination
[13] = LAMPS, EMS media, 10 days, vs vehicle, 10 μM OCA, 30 μM PGZ, vorinostat 1.7 or 5 μM, pioglitazone 30 μM + vorinostat 1.7 or 5 μM
[14] = LAMPS, NAFLD disease media, 10 days, vs vehicle, 10 μM OCA, 30 μM PGZ, 10 μM TGZ, Vorinostat 1.7 or 5 μM, pioglitazone + vorinostat combination
[15] = EMS media, vorinostat 1.7 or 5 μM, pioglitazone 30 μM + vorinostat 1.7 or 5 μM

SMILES | Lactate dehydrogenase curves (LAMPS models [1]; NAFLD disease media) | Effect on secreted pro-fibrotic markers / fibrosis [2] | Decrease in secretion of the pro-fibrotic marker Pro-collagen 1a1 [2, 8] [%] | Decrease in secretion of the pro-fibrotic marker Pro-Col 1a1 [2, 9] [%] | Inflammatory cytokine production [3, 11] | Effect on stellate cell activation [4] | Stellate cell activation (α-SMA intensity) [4, 12] | Effect on steatosis (LAMPS models [5]) | Hepatocellular steatosis / lipid accumulation (LipidTOX intensity) (LAMPS models [5]; LAMPS, 10 μM OCA, 30 μM PGZ) | Secreted levels / production of TIMP-1 [2, 14] | Albumin curves (LAMPS models [6]) | Blood urea nitrogen curves (LAMPS models [6]) | other results
CC[C@H]1[C@@H](O)[C@@H]2[C@H](CC[C@]3(C)[C@@H]([C@H](C)CCC(=O)O)CC[C@@H]23)[C@@]2(C)CC[C@@H](O)C[C@@H]12 [OCA, obeticholic acid] | no significant differences | no significant effect | ~20 | ~20 |  |  |  |  |  |  |  |  | 
O=C(CCCCCCC(=O)Nc1ccccc1)NO [Vorinostat, suberoylanilide hydroxamic acid] |  | robustly mitigated; also recorded: robustly reduced; also recorded: significant inhibition |  |  | significant decrease | robustly reduced | significant decrease | without an impact; also recorded: without significant amelioration; also recorded: without an appreciable effect | no effect | significant decrease | no significant differences | no significant differences | Effect on inflammatory markers / inflammation ([3]; LAMPS NAFLD/MAFLD model, summary statement): robustly mitigated; also recorded: robustly reduced; also recorded: significant inhibition; Inflammatory cytokine production [3, 10]: significant decrease; Stellate cell activation (α-SMA intensity) [4, 10]: significant decrease; Steatosis / lipid accumulation (LipidTOX intensity) (LAMPS models [5]; LAMPS, EMS media, day 10, vs vehicle, 10 μM OCA, 30 μM PGZ, vorinostat 1.7 or 5 μM, pioglitazone 30 μM + vorinostat 1.7 or 5 μM): no significant effect; LDH secretion (LAMPS models [1]; EMS media, days 8 and 10, 5 μM vorinostat vs vehicle control): significant decrease; LDH secretion (LAMPS models [1]; NAFLD disease media, days 8 and 10, 5 μM Vorinostat vs vehicle control): significant decrease; Secreted levels / production of TIMP-1 [2, 13]: significant decrease; Secreted levels / production of the pro-fibrotic marker Pro-Col 1a1 [2, 13]: significant decrease; Production of the pro-fibrotic marker pro-collagen 1a1 ([2]; LAMPS, NAFLD disease media, day 10, vs vehicle control, Vorinostat 1.7 or 5 μM, pioglitazone + vorinostat combination): significant decrease; Albumin secretion profiles (LAMPS models [6]; [15]): no significant differences; Blood urea nitrogen secretion profiles (LAMPS models [6]; [15]): no significant differences
Cc1c(C)c2c(c(C)c1O)CCC(C)(COc1ccc(CC3SC(=O)NC3=O)cc1)O2 (stereo not shown) [TGZ, troglitazone] | no significant differences | reduced steatosis but not fibrosis markers; also recorded: no significant effect |  | ~20 |  | reduced | significant decrease | reduced | significant decrease | no significant change | no significant differences | no significant differences | 
CCc1ccc(CCOc2ccc(CC3SC(=O)NC3=O)cc2)nc1 (stereo not shown) [PGZ, pioglitazone] | no significant differences | no significant effect | ~20 | ~20 |  |  |  |  |  |  |  |  | 
C[C@]12COC(=O)C[C@@H]1CC[C@@H]1[C@@H]2CC[C@@]2(C)[C@H]1CC[C@]2(C)O [oxandrolone] |  |  |  |  |  |  |  |  |  |  |  |  | Hepatic ketogenesis [7]: promoted hepatic ketogenesis
N#CC(c1ccnc(NCCc2cccnc2)n1)c1nc2ccccc2s1 (stereo not shown) [AS601245] |  |  |  |  | dose-dependent increase |  |  |  | no effect |  | no significant differences | no significant differences | 
